BindingDB's records for doi:10.1016/0960-894X(95)00361-V (Sphinx Pharmaceuticals, 1995)

Tests used:
Test in all cases: PKC assay
[1] = target: Protein kinase C eta type (Homo sapiens, UniProt P24723)
Protocol: (§1) The activity of PKC, activated by phosphatidylerine and Ca2+, is measured by its ability to transfer phosphate from [gamma-32P]ATP to lysine-rich histone.

[2] = target: Protein kinase C alpha type (Homo sapiens, UniProt P17252)
Protocol: as §1

[3] = target: T1, Protein kinase C epsilon type (Homo sapiens, UniProt Q02156)
T1 sequence (Q02156 whole entry): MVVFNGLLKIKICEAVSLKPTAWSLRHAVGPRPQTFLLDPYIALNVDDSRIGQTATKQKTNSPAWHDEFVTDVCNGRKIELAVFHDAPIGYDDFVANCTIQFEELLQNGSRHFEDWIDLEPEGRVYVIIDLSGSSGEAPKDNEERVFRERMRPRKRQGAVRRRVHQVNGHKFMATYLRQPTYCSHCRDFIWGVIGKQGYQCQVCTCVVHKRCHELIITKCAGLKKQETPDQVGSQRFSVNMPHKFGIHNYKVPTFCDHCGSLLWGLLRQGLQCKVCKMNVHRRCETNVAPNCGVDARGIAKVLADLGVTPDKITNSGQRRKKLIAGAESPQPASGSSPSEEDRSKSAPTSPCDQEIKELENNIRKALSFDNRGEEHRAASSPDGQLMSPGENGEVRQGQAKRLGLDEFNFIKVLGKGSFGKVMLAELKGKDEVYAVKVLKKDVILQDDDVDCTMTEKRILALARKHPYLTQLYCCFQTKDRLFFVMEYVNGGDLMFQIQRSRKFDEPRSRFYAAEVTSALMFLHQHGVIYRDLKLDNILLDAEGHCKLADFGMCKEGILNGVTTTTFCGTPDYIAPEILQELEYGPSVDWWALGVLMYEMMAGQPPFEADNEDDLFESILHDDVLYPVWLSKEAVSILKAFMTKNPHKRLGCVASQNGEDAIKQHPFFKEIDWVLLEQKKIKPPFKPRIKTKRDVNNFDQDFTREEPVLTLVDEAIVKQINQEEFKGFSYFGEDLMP
Protocol: as §1

[4] = target: Protein kinase C delta type (Homo sapiens, UniProt Q05655)
Protocol: as §1

[5] = target: Protein kinase C beta type (Homo sapiens, UniProt P05771)
Protocol: as §1

Sequence of Protein kinase C eta type (P24723 whole entry): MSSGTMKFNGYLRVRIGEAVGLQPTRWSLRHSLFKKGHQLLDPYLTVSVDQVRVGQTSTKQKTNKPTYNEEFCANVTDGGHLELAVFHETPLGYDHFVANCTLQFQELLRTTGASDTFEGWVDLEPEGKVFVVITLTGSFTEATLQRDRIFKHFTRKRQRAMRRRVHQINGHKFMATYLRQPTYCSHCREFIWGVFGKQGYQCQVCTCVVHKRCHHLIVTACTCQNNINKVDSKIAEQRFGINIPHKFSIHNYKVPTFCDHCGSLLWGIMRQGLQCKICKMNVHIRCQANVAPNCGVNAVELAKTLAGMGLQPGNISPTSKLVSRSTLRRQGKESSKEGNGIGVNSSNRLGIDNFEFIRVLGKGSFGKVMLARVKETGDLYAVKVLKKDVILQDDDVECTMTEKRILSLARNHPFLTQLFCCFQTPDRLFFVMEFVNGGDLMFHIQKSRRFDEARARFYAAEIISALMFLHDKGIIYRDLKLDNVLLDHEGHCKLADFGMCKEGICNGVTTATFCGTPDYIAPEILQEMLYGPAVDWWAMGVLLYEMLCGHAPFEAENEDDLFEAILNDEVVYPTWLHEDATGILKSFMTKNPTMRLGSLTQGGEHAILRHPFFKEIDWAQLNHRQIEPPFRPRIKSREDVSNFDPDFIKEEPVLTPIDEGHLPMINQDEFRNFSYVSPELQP
Sequence of Protein kinase C beta type (P05771 whole entry): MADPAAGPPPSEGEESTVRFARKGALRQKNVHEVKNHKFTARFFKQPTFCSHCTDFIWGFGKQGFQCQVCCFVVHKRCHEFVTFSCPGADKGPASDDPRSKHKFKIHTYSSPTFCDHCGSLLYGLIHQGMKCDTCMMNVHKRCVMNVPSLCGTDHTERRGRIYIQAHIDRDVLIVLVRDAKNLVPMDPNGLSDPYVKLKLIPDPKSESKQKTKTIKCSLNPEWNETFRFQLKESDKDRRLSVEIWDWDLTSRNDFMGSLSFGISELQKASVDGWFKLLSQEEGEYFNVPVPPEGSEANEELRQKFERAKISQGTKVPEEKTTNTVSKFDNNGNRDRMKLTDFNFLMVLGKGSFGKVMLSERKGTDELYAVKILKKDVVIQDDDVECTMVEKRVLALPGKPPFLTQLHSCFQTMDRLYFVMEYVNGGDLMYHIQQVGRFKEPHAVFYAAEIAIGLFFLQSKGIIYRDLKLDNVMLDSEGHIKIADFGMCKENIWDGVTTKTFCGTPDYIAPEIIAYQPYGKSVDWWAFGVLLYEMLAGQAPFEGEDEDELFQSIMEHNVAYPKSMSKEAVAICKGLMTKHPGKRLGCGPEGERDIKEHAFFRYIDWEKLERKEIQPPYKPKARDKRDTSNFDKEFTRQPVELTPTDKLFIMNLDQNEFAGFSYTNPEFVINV
Sequence of Protein kinase C delta type (Q05655 whole entry): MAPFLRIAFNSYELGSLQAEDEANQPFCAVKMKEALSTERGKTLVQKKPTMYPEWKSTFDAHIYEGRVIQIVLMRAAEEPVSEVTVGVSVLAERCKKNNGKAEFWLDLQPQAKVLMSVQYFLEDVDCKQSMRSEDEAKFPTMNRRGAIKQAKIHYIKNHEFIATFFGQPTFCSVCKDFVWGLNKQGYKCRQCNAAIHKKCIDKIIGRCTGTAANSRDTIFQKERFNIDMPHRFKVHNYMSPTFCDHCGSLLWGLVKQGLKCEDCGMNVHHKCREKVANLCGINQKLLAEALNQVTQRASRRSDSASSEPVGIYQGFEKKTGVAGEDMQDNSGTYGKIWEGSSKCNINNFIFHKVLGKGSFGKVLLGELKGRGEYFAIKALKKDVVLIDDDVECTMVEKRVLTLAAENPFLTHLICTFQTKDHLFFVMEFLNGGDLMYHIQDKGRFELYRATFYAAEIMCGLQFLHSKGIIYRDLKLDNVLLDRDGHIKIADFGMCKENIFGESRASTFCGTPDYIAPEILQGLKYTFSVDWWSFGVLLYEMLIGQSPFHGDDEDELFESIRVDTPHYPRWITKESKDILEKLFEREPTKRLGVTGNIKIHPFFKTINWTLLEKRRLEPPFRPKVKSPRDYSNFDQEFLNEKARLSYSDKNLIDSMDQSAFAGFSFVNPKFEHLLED

SMILES: COC(=O)c1cccc(O)c1Oc1c(O)cc(C(=O)O[C@H]2CCC[C@@H]2NC(=O)c2ccc(O)cc2)cc1O [(1S,2S)-2-[(4-hydroxybenzene)amido]cyclopentyl 3,5-dihydroxy-4-[2-hydroxy-6-(methoxycarbonyl)phenoxy]benzoate]
- IC50 [1]: 400 nM
- IC50 [2]: 4200 nM
- IC50 [3]: 20000 nM
- IC50 [4]: 250 nM
- IC50 [5]: 1800 nM

SMILES: COC(=O)c1cccc(O)c1Oc1c(O)cc(C(=O)O[C@@H]2CCC[C@H]2NC(=O)c2ccc(O)cc2)cc1O [(1R,2R)-2-[(4-hydroxybenzene)amido]cyclopentyl 3,5-dihydroxy-4-[2-hydroxy-6-(methoxycarbonyl)phenoxy]benzoate]
- IC50 [1]: 4 nM
- IC50 [2]: 210 nM
- IC50 [3]: 300 nM
- IC50 [4]: 5 nM
- IC50 [5]: 40 nM
